Where two headings read alike, the source gives them in different places.
Key:
VIM-1 = VIM-1 (Pseudomonas aeruginosa (strain ATCC 15692 / DSM 22644 / CIP 104116 / JCM 14847 / LMG 12228 / 1C / PRS 101 / PAO1), UniProt A0A0F7KYQ8); assay: Enzyme activity: determination of IC50, fluorescence assay with CCF2-FA substrate (VIM-1); type: biochemical
Description: Enzyme Activity: Determination of IC50
The Class B enzyme activities were measured in the presence of the test inhibitor in a fluorescence assay against a commercially available substrate consisting of a cephalosporin core linking 7-hydroxycoumarin to fluorescein (CCF2-FA). The enzyme (NDM-1, IMP-1 or VIM-1) and the substrate were diluted in 100 mM KH2PO4 buffer (pH 7) containing 0.005% Tween-20 and 10 μM ZnSO4. […] The test inhibitor was dissolved in dimethylsulfoxide and diluted 1:50 in the assay, resulting in a final concentration range of 20 uM to 0.00063 uM. In a 384-well microplate, the test inhibitor was incubated with the metallo-β-lactamase enzyme and the substrate for 2 hours at 25° C. Fluorescence at 460 nm following excitation at 405 nm was measured. The IC50 value was determined from semi-logarithmic plots of enzyme inhibition versus inhibitor concentration, with a curve generated using a 4-parameter fit.

[1] = tested on: Klebsiella pneumoniae expressing VIM-1 (IHMA599644); assay: Antibiotic potentiation activity: synergistic concentration (MITC95) with imipenem, OD600 growth; type: cell-based; conditions: for Klebsiella pneumoniae expressing VIM-1 (IHMA 599644) MITC95: concentration giving 95% inhibition of bacterial growth; for Klebsiella pneumoniae MITC95: Klebsiella pneumoniae expressing VIM-1 (IHMA599644), 95% growth inhibition
Procedure, shortened: (§1)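 Absorbance after a 22–24 h, 35 °C incubation served as the read-out. Wells held bacteria (saline suspension diluted 1:100 into 1.1× CAMHB), imipenem at 4 μg/ml final or optionally 1 μg/ml, and test compound.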

[2] = tested on: Serratia marcescens expressing IMP-1 (CL5741); assay: as above; type: cell-based; conditions: for Serratia marcescens expressing IMP-1 (CL5741) MITC95: concentration giving 95% inhibition of bacterial growth; for Serratia marcescens MITC95: Serratia marcescens expressing IMP-1 (CL5741), 95% growth inhibition
Procedure, shortened: as §1

[3] = tested on: Escherichia coli expressing NDM-1 (CLB30005); assay: as above; type: cell-based; conditions: for Escherichia coli expressing NDM-1 (CLB 30005) MITC95: concentration giving 95% inhibition of bacterial growth; for Escherichia coli MITC95: Escherichia coli expressing NDM-1 (CLB30005), 95% growth inhibition
Procedure, shortened: as §1

IMP-1 = IMP-1 (Serratia marcescens, UniProt P52699); assay: biochemical; type: biochemical
NDM-1 = NDM-1 (Klebsiella pneumoniae, UniProt C7C422); assay: biochemical; type: biochemical; conditions: read-out: NDM-1 IC50
[4] = VIM-1 IC50, fluorescence assay with CCF2-FA substrate
[5] = fluorescence assay with CCF2-FA substrate, read-out: IMP-1 IC50
[6] = fluorescence assay with CCF2-FA substrate
[7] = fluorescence assay with CCF2-FA substrate, read-out: VIM-1 IC50
[8] = VIM-1 enzyme, CCF2-FA fluorescence assay, read-out: VIM-1 IC50
[9] = IMP-1 enzyme, CCF2-FA fluorescence assay, read-out: IMP-1 IC50
[10] = NDM-1 enzyme, CCF2-FA fluorescence assay
[11] = VIM-1 IC50, VIM-1 enzyme, CCF2-FA fluorescence assay

IMP-1, sequence (P52699 whole entry, looked up): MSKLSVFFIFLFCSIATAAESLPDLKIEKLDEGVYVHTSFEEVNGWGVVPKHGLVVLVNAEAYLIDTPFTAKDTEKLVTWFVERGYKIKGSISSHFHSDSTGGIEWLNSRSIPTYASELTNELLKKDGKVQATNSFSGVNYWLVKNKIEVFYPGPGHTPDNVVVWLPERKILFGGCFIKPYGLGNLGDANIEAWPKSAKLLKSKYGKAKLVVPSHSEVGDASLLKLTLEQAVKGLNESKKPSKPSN
NDM-1, sequence (C7C422 whole entry, looked up, species assumed): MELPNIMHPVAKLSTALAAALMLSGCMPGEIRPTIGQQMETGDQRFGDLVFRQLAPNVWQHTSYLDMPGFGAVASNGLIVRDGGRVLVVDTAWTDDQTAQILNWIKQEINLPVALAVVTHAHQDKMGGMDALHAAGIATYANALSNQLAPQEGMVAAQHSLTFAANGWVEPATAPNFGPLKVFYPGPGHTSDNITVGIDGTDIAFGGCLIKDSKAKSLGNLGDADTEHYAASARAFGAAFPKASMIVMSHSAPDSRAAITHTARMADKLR

Structure (SMILES)	IC50 (VIM-1; [4])	Klebsiella pneumoniae expressing VIM-1 (IHMA 599644) MITC95 [1]	Serratia marcescens expressing IMP-1 (CL5741) MITC95 [2]	Escherichia coli expressing NDM-1 (CLB 30005) MITC95 [3]	IC50 (IMP-1; [5])	IC50 (NDM-1; [6])	IC50 (VIM-1; [7])	IC50 (VIM-1; [8])	Klebsiella pneumoniae MITC95 [1]	Serratia marcescens MITC95 [2]	Escherichia coli MITC95 [3]	IC50 (IMP-1; [9])	IC50 (NDM-1; [10])	IC50 (VIM-1; [11])	IC50 (IMP-1)
NS(=O)(=O)c1ccc(-c2cccc(S(N)(=O)=O)c2-c2nn[nH]n2)cc1 [Example 61, 2-(2H-tetrazol-5-yl)biphenyl-3,4′-disulfonamide]	0.062 µM	25 µM	6.25 µM	0.5859 µM	0.058 µM	0.00634 µM	–	–	–	–	–	–	–	–	–
NS(=O)(=O)c1cccc(-c2ccc3c(=O)nc[nH]c3c2)c1-c1nn[nH]n1 [Example 69, 3-(4-oxo-1,4-dihydroquinazolin-7-yl)-2-(2H-tetrazol-5-yl)benzenesulfonamide]	–	25 µM	18.75 µM	0.7813 µM	0.237 µM	0.00505 µM	0.0264 µM	–	–	–	–	–	–	–	–
Cc1nc2ccccc2n1Cc1ccc(-c2cccc(S(N)(=O)=O)c2-c2nnn[nH]2)cc1 [Example 304, 4′-((2-methyl-1H-benzo[d]imidazol-1-yl)methyl)-2-(1H-tetrazol-5-yl)-[1,1′-biphenyl]-3-sulfonamide]	–	–	–	–	–	–	–	0.103 µM	>200 µM	7.031 µM	6.25 µM	0.0503 µM	0.0292 µM	–	–
NS(=O)(=O)c1cccc(-c2cccs2)c1-c1nn[nH]n1 [Example 20, 2-(2H-tetrazol-5-yl)-3-thiophen-2-ylbenzenesulfonamide]	–	166.7 µM	18.75 µM	1.823 µM	0.331 µM	0.0204 µM	0.362 µM	–	–	–	–	–	–	–	–
COc1ccc(-c2cccc(S(N)(=O)=O)c2-c2nn[nH]n2)cn1 [Example 78, 3-(6-methoxypyridin-3-yl)-2-(2H-tetrazol-5-yl)benzenesulfonamide]	–	100 µM	18.75 µM	0.7813 µM	0.203 µM	0.0193 µM	0.147 µM	–	–	–	–	–	–	–	–
NS(=O)(=O)c1nccc(-c2ccncc2)c1-c1nnn[nH]1 [Example 194, 3-(1H-tetrazol-5-yl)-[4,4′-bipyridine]-2-sulfonamide]	–	62.5 µM	75 µM	0.7813 µM	2.27 µM	0.248 µM	0.907 µM	–	–	–	–	–	–	–	–
CN(C)Cc1ccc(-c2cccc(S(N)(=O)=O)c2-c2nnn[nH]2)cc1 [Example 327, 4′-((Dimethylamino)methyl)-2-(1H-tetrazol-5-yl)-[1,1′-biphenyl]-3-sulfonamide]	–	–	–	–	–	–	–	–	100 µM	12.5 µM	0.7813 µM	0.534 µM	0.0377 µM	0.216 µM	–
C[C@H]1NC(=O)O[C@H]1c1ccc(-c2ccnc(S(N)(=O)=O)c2-c2nnn[nH]2)cc1 (racemic) [Example 191, (±)-4-(4-(cis-4-Methyl-2-oxooxazolidin-5-yl)phenyl)-3-(1H-tetrazol-5-yl)pyridine-2-sulfonamide]	–	75 µM	15.63 µM	9.375 µM	–	0.00775 µM	0.0459 µM	–	–	–	–	–	–	–	0.076 µM
NS(=O)(=O)c1cccc(C(F)(F)F)c1-c1nnn[nH]1 [Example 256, 2-(1H-Tetrazol-5-yl)-3-(trifluoromethyl)benzenesulfonamide]	–	–	–	–	–	–	–	8.44 µM	>200 µM	100 µM	0.7813 µM	6.26 µM	0.23 µM	–	–
COC(=O)c1ccc(-c2ccnc(S(N)(=O)=O)c2-c2nnn[nH]2)cc1 [Example 182, Methyl 4-(2-sulfamoyl-3-(1H-tetrazol-5-yl)pyridin-4-yl)benzoate]	0.0914 µM	200 µM	100 µM	4.688 µM	0.348 µM	0.0324 µM	–	–	–	–	–	–	–	–	–
NS(=O)(=O)c1cccc(-c2ccc(CO)nc2)c1-c1nnn[nH]1 [Example 258, 3-(6-(Hydroxymethyl)pyridin-3-yl)-2-(1H-tetrazol-5-yl)benzenesulfonamide]	–	–	–	–	–	–	–	0.147 µM	15.63 µM	37.5 µM	1.302 µM	0.888 µM	0.0129 µM	–	–
NS(=O)(=O)c1cccc(-c2ccc(C(=O)NC3CC3)cc2)c1-c1nn[nH]n1 [Example 11, N-cyclopropyl-3′-sulfamoyl-2′-(2H-tetrazol-5-yl)biphenyl-4-carboxamide]	0.466 µM	>200 µM	12.5 µM	1.563 µM	0.109 µM	0.00642 µM	–	–	–	–	–	–	–	–	–
NS(=O)(=O)c1cccc(-c2ccc(C(O)CO)cc2)c1-c1nn[nH]n1 (stereo not drawn) [Example 321, 4′-(1,2-dihydroxyethyl)-2-(2H-tetrazol-5-yl)-[1,1′-biphenyl]-3-sulfonamide]	–	–	–	–	–	–	–	–	50 µM	6.25 µM	1.563 µM	0.0935 µM	0.0192 µM	0.199 µM	–
NS(=O)(=O)c1cccc(-c2ccnc(F)c2)c1-c1nn[nH]n1 [Example 46, 3-(2-fluoropyridin-4-yl)-2-(2H-tetrazol-5-yl)benzenesulfonamide]	–	28.13 µM	25 µM	0.5859 µM	0.302 µM	0.0145 µM	0.0991 µM	–	–	–	–	–	–	–	–
NS(=O)(=O)c1cccc(-c2cnc(N3CCNCC3)nc2)c1-c1nn[nH]n1 [Example 320, 3-(2-(Piperazin-1-yl)pyrimidin-5-yl)-2-(2H-tetrazol-5-yl)benzenesulfonamide]	–	–	–	–	–	–	–	–	6.25 µM	9.375 µM	0.6836 µM	0.294 µM	0.0144 µM	0.0359 µM	–
NCc1nc(-c2ccc(-c3cccc(S(N)(=O)=O)c3-c3nn[nH]n3)cc2)no1 [Example 249, 4′-(5-(Aminomethyl)-1,2,4-oxadiazol-3-yl)-2-(2H-tetrazol-5-yl)-[1,1′-biphenyl]-3-sulfonamide]	–	–	–	–	–	–	–	0.087 µM	50 µM	3.125 µM	0.7813 µM	0.104 µM	0.00755 µM	–	–
NCCc1ccc(-c2cccc(S(N)(=O)=O)c2-c2nnn[nH]2)cc1 [Example 300, 4′-(2-aminoethyl)-2-(1H-tetrazol-5-yl)-[1,1′-biphenyl]-3-sulfonamide]	–	–	–	–	–	–	–	0.0315 µM	9.375 µM	12.5 µM	1.172 µM	0.373 µM	0.0372 µM	–	–
